We go through twelve compounds from patent US20250288571A1 (Nested Therapeutics, Inc., priority 2024, published 2025).

The subject of assay [1] is pMEK. Put plainly: pMEK AlphaLISA (MEK1 pS218/222), HCT116 cells, EGF stimulated. Type of assay: cell-based. Conditions: Homo sapiens, HCT-116, 2 h compound, EGF 30 ng/ml 15 min. On the procedure: (§1) Determination of pMEK IC50s
(§2) A549 cells were cultured in F12K/10% FBS media (ATCC CAT #21127022) and were seeded at 10000 cells/well and HCT116 cells were cultured in McCoy's 5A/10% FBS media (Gibco Cat #30-2007) were seeded at 15000 cells/well in 384 microplates (Corning CAT #3765). Cells were incubated overnight in a TC incubator. Compounds were serially diluted and added to cells for 2 h in a TC incubator. At the end of the 2 h EGF (R&D Systems 236-EG-200) was added at a final EGF concentration of 30 ng/ml and incubated for 15 minutes at 37° C. in a TC incubator. AlphaLisa (Perkin Elmer) was performed according to manufacturer's instructions (Perkin Elmer CAT #ALPHA.SF ULTRA MEK1 PS218/222). The percent (%) inhibition at each concentration of compound is calculated based on and relative to the AlphaLISA signal in the HPE and ZPE control wells contained within each assay plate. The ZPE control wells contain cells and DMSO as 0% inhibition, and the HPE control wells only contain cells and control compound (Sellekchem Staurosporin CAT #S1421) as 100% inhibition.
On the technique in general: Alpha assays give light when donor and acceptor beads are brought close together.

Assay [2] deals with pMEK. Put plainly: pMEK AlphaLISA (MEK1 pS218/222), A549 cells, EGF stimulated. In kind it is cell-based. To be noted: Homo sapiens, 2 h compound, EGF 30 ng/ml 15 min. On the procedure:
as §1, §2

Assay [3] concerns HCT116 cells. Put plainly: HCT116 Cell Titer Glow assay (CTG). To be noted: Homo sapiens, HCT-116, 72 h, read-out: CTG IC50 (nM) Cell Line: HCT116.20. (ATP-based viability assays read luminescence as a measure of living cells.)
Assay [4] relates to IPC298 cells. Nature of the assay: IPC298 Cell Titer Glow assay (CTG). Conditions: Homo sapiens, IPC-298, 72 h, read-out: CTG IC50 (nM) Cell Line: IPC298.2.

For `CNS(=O)(=O)Nc1nccc(Cc2cncc(Nc3ccc(F)cc3F)c2C)c1F` [Example 7, N-(2,4-difluorophenyl)-5-({3-fluoro-2-[(methylsulfamoyl)amino]pyridin-4-yl}methyl)-4-methylpyridin-3-amine], the half-inhibitory concentration (IC50) in assay [1] and in assay [2] was less than 10 nM each time.

`CNS(=O)(=O)Nc1nccc(Cc2cncc(Nc3ccc(C(F)(F)F)cc3F)c2C)c1F` [Example 8, 5-({3-fluoro-2-[(methylsulfamoyl)amino]pyridin-4-yl}methyl)-N-[2-fluoro-4-(trifluoromethyl)phenyl]-4-methylpyridin-3-amine]: the IC50 in assay [1] and in assay [2] was less than 10 nM each time.

In the case of `CNS(=O)(=O)Nc1nccc(Cc2c[n+]([O-])cc(Nc3ccc(Cl)cc3F)c2C)c1F` [Example 14, 3-[(4-chloro-2-fluorophenyl)amino]-5-({3-fluoro-2-[(methylsulfamoyl)amino]pyridin-4-yl}methyl)-4-methylpyridin-1-ium-1-olate], the IC50 in assay [1] and in assay [2] was less than 10 nM in each case.

For `Cc1c(Cc2ccc(S(C)(=O)=O)cc2F)cncc1Nc1ccc(Cl)cc1F` [Example 20, N-(4-chloro-2-fluoro-phenyl)-5-[(2-fluoro-4-methylsulfonyl-phenyl)methyl]-4-methyl-pyridin-3-amine], the IC50 in assay [1] and in assay [2] was more than 1000 nM each time.

On to `CNS(=O)(=O)Nc1ccc(Cc2cncc(Nc3ccc(Cl)cc3F)c2C)cc1OC` [Example 25, N-(4-chloro-2-fluoro-phenyl)-5-[[3-methoxy-4-(methylsulfamoylamino)phenyl]methyl]-4-methyl-pyridin-3-amine], for which the IC50 in assay [1] and in assay [2] was more than 1000 nM throughout.

With `CNS(=O)(=O)Nc1nccc(Cc2cncc(Oc3ncc(Cl)cc3F)c2C)c1F` [Example 29, {[4-({5-[(5-chloro-3-fluoropyridin-2-yl)oxy]-4-methylpyridin-3-yl}methyl)-3-fluoropyridin-2-yl]sulfamoyl}(methyl)amine], the IC50 in assay [1] and in assay [2] was 10 to 100 nM throughout.

`C=CCOc1cncc(Cc2ccnc(NS(=O)(=O)NC)c2F)c1C` [Example 30, 4-[(5-allyloxy-4-methyl-3-pyridyl)methyl]-3-fluoro-N-(methylsulfamoyl)pyridin-2-amine]: the IC50 in assay [1] and in assay [2] was 10 to 100 nM throughout.

`CNS(=O)(=O)Nc1nccc(Cc2cncc(-c3ncccc3F)c2C)c1F` [Example 31, 3-fluoro-4-[[5-(3-fluoro-2-pyridyl)-4-methyl-3-pyridyl]methyl]-N-(methylsulfamoyl)pyridin-2-amine]: the IC50 in assay [1] and in assay [2] was more than 1000 nM throughout.

Consider `CNS(=O)(=O)Nc1nccc(Cc2cncc(-c3ncc(Cl)cc3F)c2C)c1F` [Example 32, 4-[[5-(5-chloro-3-fluoro-2-pyridyl)-4-methyl-3-pyridyl]methyl]-3-fluoro-N-(methylsulfamoyl)pyridin-2-amine], for which the IC50 in assay [1] and in assay [2] was more than 1000 nM each time.

For the compound `CNS(=O)(=O)Nc1nccc(Cc2cncc(OCc3ncccc3F)c2C)c1F` [Example 34, {[3-fluoro-4-({5-[(3-fluoropyridin-2-yl)methoxy]-4-methylpyridin-3-yl}methyl)pyridin-2-yl]sulfamoyl}(methyl)amine], the IC50 (as a rule, the midpoint of a concentration-inhibition curve) in assay [1] is more than 1000 nM; in assay [2], 500 to 1000 nM.

For the compound `CNS(=O)(=O)Nc1nccc(Cc2cncc(N(C)c3ccc(Cl)cc3F)c2C)c1F` [Example 36, N-(4-chloro-2-fluorophenyl)-5-({3-fluoro-2-[(methylsulfamoyl)amino]pyridin-4-yl}methyl)-N,4-dimethylpyridin-3-amine], the IC50 in assay [1] and in assay [2] was less than 10 nM each time.

On to `[2H]C([2H])([2H])c1ccc(Nc2cncc(Cc3ccnc(NS(=O)(=O)NC)c3F)c2C)c(F)c1` [Example 104, 3-fluoro-4-[[5-[2-fluoro-4-(trideuteriomethyl)anilino]-4-methyl-3-pyridyl]methyl]-N-(methylsulfamoyl)pyridin-2-amine], for which the IC50 in assay [3] and in assay [4] was less than 10 nM throughout.
